{"source": "paper PMC8301156", "about": "“Phenolic Extracts from Extra Virgin Olive Oils Inhibit Dipeptidyl Peptidase IV Activity: In Vitro, Cellular, and In Silico Molecular Modeling Investigations” (Antioxidants, 2021)", "data": [{"target": "T1, purified human recombinant DPP-IV enzyme (Homo sapiens, UniProt P27487)", "T1 construct": "purchased Cayman Chemicals", "T1 sequence (P27487 whole entry)": "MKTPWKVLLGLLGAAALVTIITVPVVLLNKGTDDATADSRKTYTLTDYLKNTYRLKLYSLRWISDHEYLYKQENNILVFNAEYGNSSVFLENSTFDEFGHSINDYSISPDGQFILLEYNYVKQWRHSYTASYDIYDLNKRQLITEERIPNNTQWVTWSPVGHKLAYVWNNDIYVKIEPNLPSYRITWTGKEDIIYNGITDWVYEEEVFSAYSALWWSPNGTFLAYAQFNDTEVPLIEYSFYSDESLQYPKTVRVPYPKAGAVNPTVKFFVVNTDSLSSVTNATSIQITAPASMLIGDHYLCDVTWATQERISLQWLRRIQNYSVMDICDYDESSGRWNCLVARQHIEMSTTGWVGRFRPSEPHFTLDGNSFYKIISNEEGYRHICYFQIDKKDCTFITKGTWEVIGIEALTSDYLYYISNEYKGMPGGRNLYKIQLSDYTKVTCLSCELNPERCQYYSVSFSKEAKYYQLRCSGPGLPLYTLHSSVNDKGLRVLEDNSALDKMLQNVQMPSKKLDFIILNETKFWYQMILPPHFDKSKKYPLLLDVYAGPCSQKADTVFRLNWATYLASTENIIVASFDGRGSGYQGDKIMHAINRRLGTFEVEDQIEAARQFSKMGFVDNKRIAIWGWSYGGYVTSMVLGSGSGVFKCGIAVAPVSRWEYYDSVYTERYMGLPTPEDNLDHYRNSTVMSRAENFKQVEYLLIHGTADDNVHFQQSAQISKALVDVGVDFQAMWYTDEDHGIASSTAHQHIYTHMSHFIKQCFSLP", "experiment": "In vitro DPP-IV activity assay (Gly-Pro-AMC fluorescence)", "format": "biochemical", "details": "tested 1–1000 µM", "protocol": "The DPP-IV enzyme was provided by Cayman Chemicals (Ann Arbor, MI, USA), while the DPP-IV substrate (Gly-Pro-amido-4-methylcoumarin hydrobromide (Gly-Pro-AMC)) was from AnaSpec Inc. (Freemont, CA, USA). The experiments were carried out in triplicate in a half-volume 96-well solid plate (white) following conditions previously optimized. More details are available in the Supplementary Material.\nTo evaluate the DPP-IV inhibitory activity of both BUO and OMN, in vitro experiments were performed by using the purified human recombinant DPP-IV enzyme and H-Gly-Pro-AMC as a substrate. The reaction was monitored by measuring the fluorescence signals at 465 nm after excitation at 350 nm, deriving from the release of a free AMC group after the cleavage of H-Gly-Pro-AMC catalyzed by DPP-IV. […]\nTris-HCl, ethylendiaminetetraacetic acid (EDTA) and NaCl were from Sigma-Aldrich (St. Louis, MO, USA) The DPP-IV assay kit was from (Cayman Chemicals (Michigan, USA), while Gly- Pro-amido-4-methylcoumarin hydrobromide (Gly- Pro-AMC) was from AnaSpec (Freemont, CA, USA). […]\nMA, USA). Tyrosol (≥98%), hydroxytyrosol (≥98%), and oleocanthal (≥95%) were from Merck Life Science S.r.l. (Milano, Italy); oleuropein (≥98%) was from Extrasynthese (Genay, France), whereas oleacin was from Phytolab\n(Vestenbergsgreuth, Germany).\n2.3. In Vitro DPP-IV Activity Assay\nThe DPP-IV enzyme was provided by Cayman Chemicals (Michigan, USA), while the DPP-IV substrate (H-Gly-Pro-AMC) was from AnaSpec Inc.\n(Freemont, CA, USA). The experiments were carried out in triplicate in a half volume 96-well solid plate (white). […]\nSubsequently, the samples were mixed and 50 μL of each reaction was transferred in each plate well. […] Fluorescence signals deriving from the release of free AMC were measured using a Synergy H1 fluorescence plate reader from BioTek (excitation/emission wavelength", "units": {"IC50": "µM"}, "values": [{"smiles": "OCCc1ccc(O)cc1", "note": "[tyrosol]", "IC50": "1110 ± 55.6"}, {"smiles": "C/C=C1/[C@H](O[C@@H]2O[C@H](CO)[C@@H](O)[C@H](O)[C@H]2O)OC=C(C(=O)OC)[C@H]1CC(=O)OCCc1ccc(O)c(O)c1", "note": "[oleuropein]", "IC50": "472 ± 21.7"}, {"smiles": "OCCc1ccc(O)c(O)c1", "note": "[hydroxytyrosol]", "IC50": "742 ± 35.7"}]}, {"test_system": "DPP-IV", "experiment": "not given", "details": "cited from earlier work", "values": [{"smiles": "O=C(/C=C/c1ccc(O)c(O)c1)O[C@@H]1C[C@](O)(C(=O)O)C[C@@H](O)[C@H]1O", "note": "[chlorogenic acid]", "activity against DPP-IV (in words)": "totally inactive"}, {"smiles": "COc1ccc([C@@H]2CC(=O)c3c(O)cc(O[C@@H]4O[C@H](CO)[C@@H](O)[C@H](O)[C@H]4O[C@@H]4O[C@@H](C)[C@H](O)[C@@H](O)[C@H]4O)cc3O2)cc1O", "note": "[neohesperidin]", "activity against DPP-IV (in words)": "totally inactive"}, {"smiles": "Oc1cc(O)c2c(c1)O[C@H](c1ccc(O)c(O)c1)[C@H](O)C2", "note": "[epicatechin]", "activity against DPP-IV (in words)": "totally inactive"}, {"smiles": "C[C@@H]1O[C@@H](OC[C@H]2O[C@@H](Oc3c(-c4ccc(O)c(O)c4)oc4cc(O)cc(O)c4c3=O)[C@H](O)[C@@H](O)[C@@H]2O)[C@H](O)[C@H](O)[C@H]1O", "note": "[rutin]", "activity against DPP-IV (in words)": "totally inactive"}, {"smiles": "COc1ccc([C@@H]2CC(=O)c3c(O)cc(O[C@@H]4O[C@H](CO[C@@H]5O[C@@H](C)[C@H](O)[C@@H](O)[C@H]5O)[C@@H](O)[C@H](O)[C@H]4O)cc3O2)cc1O", "note": "[hesperidin]", "activity against DPP-IV (in words)": "totally inactive"}, {"smiles": "CC1(C)O[C@H]2CC(=O)OC[C@]23[C@H]2CC[C@@]4(C)[C@H](c5ccoc5)OC(=O)[C@H]5O[C@]54[C@]2(C)C(=O)C[C@@H]13", "note": "[limonin]", "activity against DPP-IV (in words)": "totally inactive"}, {"smiles": "O=c1c(-c2ccc(O)cc2)coc2cc(O[C@@H]3O[C@H](CO)[C@@H](O)[C@H](O)[C@H]3O)cc(O)c12", "note": "[genistin]", "activity against DPP-IV (in words)": "totally inactive"}, {"smiles": "O=c1cc(-c2ccc(O)c(O)c2)oc2cc(O)cc(O)c12", "note": "[luteolin]", "mode of DPP-IV inhibition": "noncompetitive"}, {"smiles": "C[C@@H]1O[C@@H](O[C@H]2[C@H](Oc3cc(O)c4c(c3)O[C@H](c3ccc(O)cc3)CC4=O)O[C@H](CO)[C@@H](O)[C@@H]2O)[C@H](O)[C@H](O)[C@H]1O", "note": "[naringin]", "activity against DPP-IV (in words)": "totally inactive"}, {"smiles": "Oc1ccc(/C=C/c2cc(O)cc(O)c2)cc1", "note": "[resveratrol]", "mode of DPP-IV inhibition": "competitive"}, {"smiles": "C[C@@H]1O[C@@H](OC[C@H]2O[C@@H](Oc3cc(O)c4c(c3)O[C@H](c3ccc(O)cc3)CC4=O)[C@H](O)[C@@H](O)[C@@H]2O)[C@H](O)[C@H](O)[C@H]1O", "note": "[narirutin]", "activity against DPP-IV (in words)": "totally inactive"}, {"smiles": "COc1cc(/C=C/C(=O)CC(=O)/C=C/c2ccc(O)c(OC)c2)ccc1O", "note": "[curcumin]", "activity against DPP-IV (in words)": "more active than resveratrol", "mode of DPP-IV inhibition": "competitive"}, {"smiles": "O=c1cc(-c2ccc(O)cc2)oc2cc(O)cc(O)c12", "note": "[apigenin]", "mode of DPP-IV inhibition": "noncompetitive"}, {"smiles": "O.Oc1cc(O)c2c(c1)O[C@H](c1ccc(O)c(O)c1)[C@@H](O)C2", "note": "[catechin]", "activity against DPP-IV (in words)": "totally inactive"}, {"smiles": "O=C(O)c1ccc(O)c(O)c1", "note": "[protocatechuic acid]", "activity against DPP-IV (in words)": "totally inactive"}]}, {"test_system": "DPP-IV", "experiment": "not given", "details": "read-out: IC50, in vitro DPP-IV activity; cited from earlier work", "units": {"IC50": "µM"}, "values": [{"smiles": "C[C@@H]1O[C@@H](OC[C@H]2O[C@@H](Oc3cc(O)c4c(c3)O[C@H](c3ccc(O)c(O)c3)CC4=O)[C@H](O)[C@@H](O)[C@@H]2O)[C@H](O)[C@H](O)[C@H]1O", "note": "[eriocitrin]", "IC50": "10.36 ± 0.09"}, {"smiles": "Oc1ccc(/C=C/c2cc(O)cc(O)c2)cc1", "note": "[resveratrol]", "IC50": "0.0006 ± 0.0004"}]}]}
